Literature values in article PMC7485629 (Biochemistry, 2019).
Where two headings read alike, the source gives them in different places.

System: N-terminus of PD-L1
Conditions: crystal structure

Compound | interaction with N-terminus of PD-L1 (ref [66]) | interaction with N-terminus of PD-L1 (ref [21])
Cc1c(COc2cc(F)c(CNC[C@@H](O)CC(=O)O)cc2F)cccc1-c1ccc2c(c1)OCCO2 [BMS-200] | hydrogen bond with Thr20 | –
COc1nc(OCc2cccc(-c3ccccc3)c2C)ccc1CNCCNC(C)=O [BMS-202] | – | water-mediated interaction with the backbone carbonyl of Phe19
